Source: article PMC11859928, “Design, Synthesis, and Antiproliferative Activity of Novel Indole/1,2,4-Triazole Hybrids as Tubulin Polymerization Inhibitors” (Pharmaceuticals, 2025)
Where two headings read alike, the source gives them in different places.

How the values were obtained:
Renal cancer subpanel = assay: NCI five-dose assay, subpanel mean; assay type: cell-based, human
A549/ATCC = assay: NCI five-dose assay; assay type: cell-based, human; settings: Non-small cell lung cancer
MCF7 = assay: NCI five-dose assay; assay type: cell-based, human; settings: MCF7, Breast cancer
OVCAR-5 = assay: NCI five-dose assay; assay type: cell-based, human; settings: OVCAR-5, Ovarian cancer
Breast cancer subpanel = assay: NCI five-dose assay, subpanel mean; assay type: cell-based, human
UACC-62 = assay: NCI five-dose assay; assay type: cell-based, human; settings: UACC-62, Melanoma
BT-549 = assay: NCI five-dose assay; assay type: cell-based, human; settings: BT-549, Breast cancer
IGROV1 = assay: NCI five-dose assay; assay type: cell-based, human; settings: IGROV1, Ovarian cancer
NCI-H226 = assay: NCI five-dose assay; assay type: cell-based, human; settings: NCI-H226, Non-small cell lung cancer
Leukemia subpanel = assay: NCI five-dose assay, subpanel mean; assay type: cell-based, human
SK-MEL-5 = assay: NCI five-dose assay; assay type: cell-based, human; settings: SK-MEL-5, Melanoma
COLO205 = assay: NCI five-dose assay; assay type: cell-based, human; settings: COLO205, Colon cancer
NCI-H23 = assay: NCI five-dose assay; assay type: cell-based, human; settings: NCI-H23, Non-small cell lung cancer
MDA-MB-468 = assay: NCI five-dose assay; assay type: cell-based, human; settings: MDA-MB-468, Breast cancer
Melanoma subpanel = assay: NCI five-dose assay, subpanel mean; assay type: cell-based, human
T-47D = assay: NCI five-dose assay; assay type: cell-based, human; settings: Breast cancer
[1] = tested on: panel of 60 human tumor cell lines; assay: NCI five-dose assay, full panel; assay type: cell-based
K-562 = assay: NCI five-dose assay; assay type: cell-based, human; settings: K-562, Leukemia
SK-MEL-28 = assay: NCI five-dose assay; assay type: cell-based, human; settings: SK-MEL-28, Melanoma
UACC-257 = assay: NCI five-dose assay; assay type: cell-based, human; settings: Homo sapiens, UACC-257, Melanoma
RPMI-8226 = assay: NCI five-dose assay; assay type: cell-based, human; settings: RPMI-8226, Leukemia
HCT-15 = assay: NCI five-dose assay; assay type: cell-based, human; settings: HCT-15, Colon cancer
CNS cancer subpanel = assay: NCI five-dose assay, subpanel mean; assay type: cell-based, human
HOP-92 = assay: NCI five-dose assay; assay type: cell-based, human; settings: HOP-92, Non-small cell lung cancer
HS 578T = assay: NCI five-dose assay; assay type: cell-based, human; settings: Breast cancer
U251 = assay: NCI five-dose assay; assay type: cell-based, human; settings: U251, CNS cancer
HCT-116 = assay: NCI five-dose assay; assay type: cell-based, human; settings: HCT-116, Colon cancer
[2] = Homo sapiens, 48 h, read-out: LC50 (the source's name)
[3] = Homo sapiens, read-out: GI50 Conc. per Cell Lines

Cc1ccc(/C(CSc2nnc(-c3c[nH]c4ccccc34)n2-c2ccccc2)=N/O)cc1 [Compound 7h, (Z)-2-((5-(1H-Indol-3-yl)-4-phenyl-4H-1,2,4-triazol-3-yl)thio)-1-(p-tolyl)ethanone Oxime]
GI50 (Renal cancer subpanel; Homo sapiens, average sensitivity of all cell lines of the Renal cancer subpanel, read-out: GI50 Subpanel MID b): 5.77 µM | GI50 Selectivity Ratio (MID a/MID b) (Renal cancer subpanel; Renal cancer subpanel): 0.52 | CC50 (A549/ATCC; [2]): > 100 µM | GI50 (A549/ATCC; [3]): 3.55 µM | TGI Conc. per Cell Lines (A549/ATCC): 69.70 µM | LC50 (MCF7; Homo sapiens, 48 h): > 100 µM | GI50 (MCF7; [3]): 2.42 µM | TGI Conc. per Cell Lines (MCF7): 7.01 µM | LC50 (OVCAR-5; Homo sapiens, 48 h): 5.73 µM | GI50 (OVCAR-5; [3]): 1.69 µM | TGI Conc. per Cell Lines (OVCAR-5): 3.11 µM | GI50 Selectivity Ratio (MID a/MID b) (Breast cancer subpanel; Breast cancer subpanel): 1.58 | GI50 (Breast cancer subpanel; Homo sapiens, average sensitivity of all cell lines of the Breast cancer subpanel, read-out: GI50 Subpanel MID b): 1.9 µM | CC50 (UACC-62; [2]): 6.31 µM | GI50 (UACC-62; [3]): 1.69 µM | TGI Conc. per Cell Lines (UACC-62): 3.26 µM | TGI Conc. per Cell Lines (BT-549): 3.03 µM | CC50 (BT-549; [2]): 5.78 µM | GI50 (BT-549; [3]): 1.59 µM | CC50 (IGROV1; Homo sapiens, IGROV-1, 48 h, read-out: LC50 (the source's name)): 9.07 µM | GI50 (IGROV1; Homo sapiens, IGROV-1, read-out: GI50 Conc. per Cell Lines): 2.09 µM | TGI Conc. per Cell Lines (IGROV1): 4.35 µM | CC50 (NCI-H226; [2]): 6.91 µM | GI50 (NCI-H226; [3]): 1.63 µM | TGI Conc. per Cell Lines (NCI-H226): 3.36 µM | GI50 (Leukemia subpanel; Homo sapiens, average sensitivity of all cell lines of the Leukemia subpanel, read-out: GI50 Subpanel MID b): 2.03 µM | GI50 Selectivity Ratio (MID a/MID b) (Leukemia subpanel; Leukemia subpanel): 1.47 | CC50 (SK-MEL-5; [2]): > 100 µM | GI50 (SK-MEL-5; [3]): 4.76 µM | TGI Conc. per Cell Lines (SK-MEL-5): 48.1 µM | TGI Conc. per Cell Lines (COLO205): 37.40 µM | CC50 (COLO205; Homo sapiens, COLO 205, 48 h, read-out: LC50 (the source's name)): > 100 µM | GI50 (COLO205; Homo sapiens, COLO 205, read-out: GI50 Conc. per Cell Lines): 3.77 µM | CC50 (NCI-H23; [2]): > 100 µM | GI50 (NCI-H23; [3]): 10.1 µM | TGI Conc. per Cell Lines (NCI-H23): 52.20 µM | LC50 (MDA-MB-468; Homo sapiens, 48 h): 5.64 µM | GI50 (MDA-MB-468; [3]): 1.5 µM | TGI Conc. per Cell Lines (MDA-MB-468): 2.91 µM | GI50 (Melanoma subpanel; Homo sapiens, average sensitivity of all cell lines of the Melanoma subpanel, read-out: GI50 Subpanel MID b): 2.78 µM | GI50 Selectivity Ratio (MID a/MID b) (Melanoma subpanel; Melanoma subpanel): 1.08 | TGI Conc. per Cell Lines (T-47D): 4.75 µM | LC50 (concentration killing 50% of cells) (T-47D; Homo sapiens, T47D, 48 h): > 100 µM | GI50 (T-47D; Homo sapiens, T47D, read-out: GI50 Conc. per Cell Lines): 2.07 µM | GI50 ([1]; average sensitivity of all cell lines, read-out: GI50 MID a): 3 µM | GI50 ([1]; most of the tested cell lines across nine subpanels, read-out: GI50 values, range across nine subpanels): 1.85 to 5.76 µM | CC50 (K-562; Homo sapiens, K562, 48 h, read-out: LC50 (the source's name)): > 100 µM | GI50 (K-562; Homo sapiens, K562, read-out: GI50 Conc. per Cell Lines): 2.01 µM | TGI Conc. per Cell Lines (K-562): 4.97 µM | CC50 (SK-MEL-28; [2]): > 100 µM | GI50 (SK-MEL-28; [3]): 5.67 µM | TGI Conc. per Cell Lines (SK-MEL-28): 38.7 µM | CC50 (UACC-257; 48 h, read-out: LC50 (the source's name)): > 100 µM | GI50 (UACC-257; read-out: GI50 Conc. per Cell Lines): 2.57 µM | CC50 (RPMI-8226; [2]): > 100 µM | GI50 (RPMI-8226; [3]): 2.05 µM | TGI Conc. per Cell Lines (RPMI-8226): 4.81 µM | TGI Conc. per Cell Lines (HCT-15): 3.34 µM | CC50 (HCT-15; [2]): 6.37 µM | GI50 (HCT-15; [3]): 1.75 µM | GI50 Selectivity Ratio (MID a/MID b) (CNS cancer subpanel; CNS cancer subpanel): 1.04 | GI50 (CNS cancer subpanel; Homo sapiens, average sensitivity of all cell lines of the CNS cancer subpanel, read-out: GI50 Subpanel MID b): 2.86 µM | TGI Conc. per Cell Lines (HOP-92): 37.40 µM | CC50 (HOP-92; [2]): > 100 µM | GI50 (HOP-92; [3]): 11.9 µM | TGI Conc. per Cell Lines (HS 578T): 4.82 µM | LC50 (HS 578T; Homo sapiens, 48 h): > 100 µM | GI50 (HS 578T; [3]): 2.07 µM | CC50 (U251; Homo sapiens, U-251, 48 h, read-out: LC50 (the source's name)): > 100 µM | GI50 (U251; Homo sapiens, U-251, read-out: GI50 Conc. per Cell Lines): 8.22 µM | TGI Conc. per Cell Lines (U251): >100 µM | TGI Conc. per Cell Lines (HCT-116): 3.65 µM | GI50 (HCT-116; [3]): 1.87 µM
